# Results from US6933313B2, “Substituted carbazoles as inhibitors of sPLA2” (Eli Lilly and Company, priority 2001, dated 2005).
# Target: T1, recombinant human secreted phospholipase A2 (Homo sapiens, UniProt P14555)
# T1 sequence (P14555 21-144): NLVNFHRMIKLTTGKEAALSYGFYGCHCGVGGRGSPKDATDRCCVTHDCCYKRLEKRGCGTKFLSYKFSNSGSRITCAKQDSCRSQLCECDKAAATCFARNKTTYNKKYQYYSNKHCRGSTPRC
# Experiment: Chromogenic assay for inhibitors of recombinant human secreted phospholipase A2 (Assay Example 1)
# Assay type: biochemical
# Settings: diheptanoyl thio-PC substrate, pH 7.5, absorbance at 405 nm, triplicate
# Excerpt: The following chromogenic assay procedure was used to identify and evaluate inhibitors of recombinant human secreted phospholipase A2. The assay described herein has been adapted for high volume screening using 96 well microtiter plates. A general description of this assay method is found in the article, “Analysis of Human Synovial Fluid Phospholipase A2 on Short Chain Phosphatidylcholine-Mixed Micelles: Development of a Spectrophotometric Assay Suitable for a Microtiterplate Reader”, by Laure J. Reynolds, Lori L. Hughes, and Edward A Dennis, Analytical Biochemistry, 204, pp. 190-197, 1992 (the disclosure of which is incorporated herein by reference):
# REACTION BUFFER— • CaCl2·2H2O (1.47 g/L) • KCl (7.455 g/L) • Bovine Serum Albumin (fatty acid free) (1 g/L)(Sigma A-7030, product of Sigma Chemical Co., St. Louis Mo., USA) • TRIS HCl (3.94 g/L) • TRIS=(tris(hydroxymethyl)aminomethane) pH 7.5 (adjust with NaOH)
# ENZYME BUFFER— • 0.05 NaOAc·3H2O, pH 4.5 • 0.2 NaCl • Adjust pH to 4.5 with acetic acid
# DTNB— • 5,5′-dithiobis-2-nitrobenzoic acid
# RACEMIC DIHEPTANOYL THIO—PC • racemic 1,2-bis(heptanoylthio)-1,2-dideoxy-sn-glycero-3-phosphorylcholine • TRITON X-100 prepare at 6.249 mg/ml in reaction buffer to equal […] • TRITON X-100 is a polyoxy ethylene non-ionic detergent supplied by Pierce Chemical Company, 3747 N. Meridian Road, Rockford, Ill. 61101.
# REACTION MIXTURE— • A measured volume of racemic dipheptanoyl thio PC supplied in chloroform at a concentration of 100 mg/ml is taken to dryness and redissolved in 10 millimolar TRITON X-100 nonionic detergent aqueous solution. Reaction Buffer is added to the solution, then DTNB to give the Reaction Mixture.
# The reaction mixture thus obtained contains 1 mM diheptanoly thio-PC substrate, 0.29 mm TRITON X-100 detergent, and 0.12 mm DTMB in a buffered aqueous solution at pH 7.5.
# • 1. Add 0.2 ml reaction mixture to all wells; • 2. Add 10 ul test compound (or solvent blank) to appropriate wells, mix 20 seconds; • 3. Add 50 nanograms of sPLA2 (10 microliters) to appropriate wells; • 4. Incubate plate at 40° C. for 30 minutes; • 5. Read absorbance of wells at 405 nanometers with an automatic plate reader.
# All compounds were tested in triplicate. Typically, compounds were tested at a final concentration of 5 ug/ml. […] Lack of color development at 405 nanometers evidenced inhibition. Compounds initially found to be active were reassayed to confirm their activity and, if sufficiently active, IC50 values were determined. […] In all cases, % inhibition measured at 405 nanometers generated by enzyme reactions containing inhibitors relative to the uninhibited control reactions was determined. Each sample was titrated in triplicate and result values were averaged for plotting and calculation of IC50 values. IC50 were determined by plotting log concentration versus inhibition values in the range from 10-90% inhibition.
row,Compound,IC50
1,"CCONC(=O)COc1cccc2c1c1c(C(N)=O)cccc1n2Cc1ccccc1 [Example 3, [[5-Carbamoyl-9-(phenylmethyl)carbazol-4-yl]oxy]-N-(ethoxy)acetamide]",19.3 nM
2,"CON(C)C(=O)COc1cccc2c1c1c(C(N)=O)cccc1n2Cc1ccccc1 [Example 5, [[5-Carbamoyl-9-(phenylmethyl)carbazol-4-yl]oxy]-N-(methoxy)-N-(methyl)acetamide]",42.5 nM
3,"NC(=O)c1cccc2c1c1c(OCC(=O)NOCc3ccccc3)cc(-c3cccs3)cc1n2Cc1ccccc1 [Example 7, [[5-Carbamoyl-9-(phenylmethyl)-2-(thien-2-yl)carbazol-4-yl]oxy]-N-[(phenylmethyl)oxy]acetamide]",29 nM

# Stronger by IC50, values ahead:
row,IC50,Compound
1,18.3 nM,"NC(=O)c1cccc2c1c1c(OCC(=O)NO)cccc1n2Cc1ccccc1 [Example 1, [[5-Carbamoyl-9-(phenylmethyl)carbazol-4-yl]oxy]-N-(hydroxy)acetamide]"
2,18.7 nM,"CONC(=O)COc1cccc2c1c1c(C(N)=O)cccc1n2Cc1ccccc1 [Example 2, [[5-Carbamoyl-9-(phenylmethyl)carbazol-4-yl]oxy]-N-(methoxy)acetamide]"
3,17 nM,"NC(=O)c1cccc2c1c1c(OCC(=O)NOCc3ccccc3)cccc1n2Cc1ccccc1 [Example 4, [[5-Carbamoyl-9-(phenylmethyl)carbazol-4-yl]oxy]-N-[(phenylmethyl)oxy]acetamide]"
